Experiments:
Assay in all cases: Selective lysis test, OD600 turbidity (Example 1)
E. coli ESBL Baa197 = format: cell-based, Escherichia coli; details: for % Change: OD600 vs control without meropenem
Method: (§1) An isolated colony from an overnight Tryptocase Soy Agar (TSA) plate of each bacterial strain was suspended in 1 ml Tryptocasc Soy Broth (TSB) in a 5 ml BD polystyrene round bottom tube. TSB cultures were incubated shaking at 37° C. overnight. Ten of the overnight culture was inoculated into lml TSB and incubated shaking at 37° C. for three hours. Two […] aliquots of each log-phase culture were then transferred to two 2 ml Eppendorf microcentrifuge tubes. One tube contained 5000 of Normal Saline (BD); the second tube contained 5000 Normal Saline with meropenem at 10 μg/ml (final concentration of meropenem of 6.67 10 μg/ml). Tubes were inverted and then incubated at 37° C. stagnant for thirty minutes. Then […] of lysis buffer (0.5% SDS in PSB) (final concentration of SDS of 0.125%) was added to each tube and the tubes were vortexed for 5 seconds. Post incubation, all tubes were spun at 10000 G for 5 minutes. Supernatant was decanted and the pellet resuspended in Normal Saline. Tubes were vortexed again. OD600 was measured using Eppendorf uvettes in a spectrophotometer. The delta between the OD600 of the normal saline control and the OD600 for the test sample exposed to meropenem in normal saline was used to determine susceptibility of the bacterial strain to meropenem.

E. coli 23848 = format: cell-based, Escherichia coli
Method: as §1

E. coli 35218 = format: cell-based, Escherichia coli
Method: as §1

E. coli 25922 = format: cell-based, Escherichia coli
Method: as §1

E. coli JM109 = format: cell-based, Escherichia coli
Method: as §1

E. coli ESBL 790 = format: cell-based, Escherichia coli
Method: as §1

E. coli 51422 = format: cell-based, Escherichia coli
Method: as §1

K. oxy 43086 = format: cell-based, Klebsiella oxytoca
Method: as §1

K. pneumo KPC 24605 = format: cell-based, Klebsiella pneumoniae
Method: as §1
(§2) The tested resistant strains were Klebsiella pneumoniae carbapenemase (KPC)-producing bacteria (abbreviated “KPC”), KPC-producing Klebsiella oxytoca (abbreviated “KPC K. oxy), and Klebsiella pneumoniae producing Metallo-beta-lactamase-1 (NDM-1) (abbreviated “NDM”).

K. pneumo KPC KPC12 = format: cell-based, Klebsiella pneumoniae
Method: as §1, §2

K. pneumo KPC 65707 = format: cell-based, Klebsiella pneumoniae
Method: as §1, §2

E. clo 13047 = format: cell-based, Enterobacter cloacae
Method: as §1

[1] = meropenem 10 μg/ml, 30 min, SDS lysis buffer + vortex
[2] = OD600 vs control without meropenem

`C[C@@H](O)[C@H]1C(=O)N2C(C(=O)O)=C(S[C@@H]3CN[C@H](C(=O)N(C)C)C3)[C@H](C)[C@H]12` [meropenem] was tested, and the “R or S” value (E. coli ESBL Baa197) was “S (a percentage change of greater than about 85% indicates a strain is susceptible)”, the “% Change” value (E. coli ESBL Baa197) was 74% and the “% Change” value (E. coli ESBL Baa197; listed as Mero) was 74%. The “Mero OD600” value (E. coli ESBL Baa197; [1]) was 0.236, the “R or S” value (E. coli 23848) was “S (a percentage change of greater than about 85% indicates a strain is susceptible)” and the “% Change” value (E. coli 23848; [2]) was 97%. The “Mero OD600” value (E. coli 23848; [1]) was 0.021, the “R or S” value (E. coli 35218) was “S (a percentage change of greater than about 85% indicates a strain is susceptible)” and the “% Change” value (E. coli 35218; [2]) was 90%. The “Mero OD600” value (E. coli 35218; [1]) was 0.1, the “R or S” value (E. coli 25922) was “S (a percentage change of greater than about 85% indicates a strain is susceptible)” and the “% Change” value (E. coli 25922; [2]) was 97%. For the same molecule, the “Mero OD600” value (E. coli 25922; [1]) was 0.064, the “R or S” value (E. coli JM109) was “S (a percentage change of greater than about 85% indicates a strain is susceptible)” and the “% Change” value (E. coli JM109; [2]) was 88%. The “Mero OD600” value (E. coli JM109; [1]) was 0.079, the “R or S” value (E. coli ESBL 790) was “S (a percentage change of greater than about 85% indicates a strain is susceptible)” and the “% Change” value (E. coli ESBL 790; [2]) was 87%. The “Mero OD600” value (E. coli ESBL 790; [1]) was 0.126, the “R or S” value (E. coli 51422) was “S (a percentage change of greater than about 85% indicates a strain is susceptible)” and the “% Change” value (E. coli 51422; [2]) was 98%. The “Mero OD600” value (E. coli 51422; [1]) was 0.031, the “R or S” value (K. oxy 43086) was “S (a percentage change of greater than about 85% indicates a strain is susceptible)” and the “% Change” value (K. oxy 43086; [2]) was 99%. For the same molecule, the “Mero OD600” value (K. oxy 43086; [1]) was 0.02, the “R or S” value (K. pneumo KPC 24605) was “R” and the “% Change” value (K. pneumo KPC 24605; [2]) was 6%. For the same molecule, the “Mero OD600” value (K. pneumo KPC 24605; [1]) was 2.0363, the “R or S” value (K. pneumo KPC KPC12) was “R” and the “% Change” value (K. pneumo KPC KPC12; [2]) was 2%. The “Mero OD600” value (K. pneumo KPC KPC12; [1]) was 1.844, the “R or S” value (K. pneumo KPC 65707) was “R” and the “% Change” value (K. pneumo KPC 65707; [2]) was 12%. For the same molecule, the “Mero OD600” value (K. pneumo KPC 65707; [1]) was 1.887, the “R or S” value (E. clo 13047) was “S (a percentage change of greater than about 85% indicates a strain is susceptible)” and the “% Change” value (E. clo 13047; [2]) was 95%. The “Mero OD600” value (E. clo 13047; [1]) was 0.06.

Source: patent US20160281125A1, “ANTIMICROBIAL COMPOUND SUSCEPTIBILITY TEST” (priority 2013, published 2016)
